Measured values reported in US9192166B2, “Compositions comprising a streptomyces-based biological control agent and an insecticide” (BAYER […], priority 2013, dated 2015).

How the values were obtained:
Assay type in all cases: in vivo
[1] = tested on: fall armyworm larvae (Spodoptera frugiperda); experiment: Spodoptera frugiperda spray test
Source text: (§1) Emulsifier: alkylaryl polyglycol ether

[2] = tested on: mustard beetle larvae (Phaedon cochleariae); experiment: Phaedon cochleariae spray test
Source text: The fermentation product is referred to in the examples below as NRRL B-50550.
Solvent: 78.0 parts by weight of acetone

[3] = tested on: green peach aphid (Myzus persicae); experiment: Myzus persicae spray test (Chinese cabbage leaf disks)
Source text: as §1
100% means all aphids have been killed; 0% means none of the aphids have been killed.

[4] = tested on: two spotted spidermite (Tetranychus urticae); experiment: Tetranychus urticae spray test, OP-resistant
Source text: as §1

[5] = tested on: green peach aphid (Myzus persicae); experiment: Myzus persicae spray test (pepper leaves); conditions: 0.5 ppm

## CC1(C)C(C=C(Cl)Cl)C1C(=O)OC(C#N)c1ccc(F)c(Oc2ccccc2)c1 (stereo not drawn) [β-Cyfluthrin, beta-Cyfluthrin]
[1]; 1.6 ppm
  Efficacy in % after 6d: 0%
[2]; 1.6 ppm
  Efficacy in % after 6d: 0%
[3]; 1.6 ppm
  Efficacy in % after 6d: 0%

## CNC(=O)c1cc(C#N)cc(C)c1NC(=O)c1cc(Cn2nnc(C(F)(F)F)n2)nn1-c1ncccc1Cl [1-(3-chloropyridin-2-yl)-N-[4-cyano-2-methyl-6-(methylcarbamoyl)phenyl]-3-{[5-(trifluoromethyl)-2H-tetrazol-2-yl]methyl}-1H-pyrazole-5-carboxamide]
[1]; 0.64 ppm
  Efficacy in % after 6d: 33%
[2]; 0.128 ppm
  Efficacy in % after 6d: 0%
[2]; 0.64 ppm
  Efficacy in % after 2d: 50%

## CNC(=O)c1cc(C#N)cc(C)c1NC(=O)c1cc(Br)nn1-c1ncccc1Cl [Cyantraniliprole]
[2]; 0.64 ppm
  Efficacy in % after 6d: 0%
[3]; 0.64 ppm
  Efficacy in % after 6d: 0%
[3]; 3.2 ppm
  Efficacy in % after 6d: 0%
[3]; 16 ppm
  Efficacy in % after 1d: 0%
[4]; 80 ppm
  Efficacy in % after 6d: 0%

## CS/C(C)=N\OC(=O)N(C)SN(C)C(=O)O/N=C(\C)SC [Thiodicarb]
[1]; 40 ppm
  Efficacy in % after 2d: 0%

## CNC(=O)Oc1cc(C)c(SC)c(C)c1 [Methiocarb]
[3]; 2000 ppm
  Efficacy in % after 6d: 0%

## CNC(=O)c1cc(Cl)cc(C)c1NC(=O)c1cc(Br)nn1-c1ncccc1Cl [Chlorantraniliprole]
[3]; 3.2 ppm
  Efficacy in % after 1d: 0%
[4]; 16 ppm
  Efficacy in % after 6d: 0%

## CN/C(=N\[N+](=O)[O-])NCc1cnc(Cl)s1 [Clothianidin]
[3]; 0.32 ppm
  Efficacy in % after 6d: 0%

## Cc1cc(C(F)(C(F)(F)F)C(F)(F)F)ccc1NC(=O)c1cccc(I)c1C(=O)NC(C)(C)CS(C)(=O)=O [Flubendiamide]
[1]; 3.2 ppm
  Efficacy in % after 2d: 33%

## O=[N+]([O-])NC1=NCCN1Cc1ccc(Cl)nc1 [Imidacloprid]
[4]; 2 ppm
  Efficacy in % after 6d: 0%

## CC(c1ccc(C(F)(F)F)nc1)S(C)(=O)=NC#N (stereo not shown) [Sulfoxaflor]
[3]; 0.64 ppm
  Efficacy in % after 1d: 0%

## Spinosad
[1]; 0.64 ppm
  Efficacy in % after 6d: 0%
[2]; 80 ppm
  Efficacy in % after 2d: 50%

## N#Cc1nn(-c2c(Cl)cc(C(F)(F)F)cc2Cl)c(N)c1[S+]([O-])C(F)(F)F (stereo not shown) [Fipronil]
[1]; 16 ppm
  Efficacy in % after 6d: 0%

## Spinetoram
[1]; 0.64 ppm
  Efficacy in % after 2d: 0%

## Cc1cc(F)c(-n2nc(C(F)(F)F)nc2N)cc1[S+]([O-])CC(F)(F)F (stereo not shown) [1-{2-fluoro-4-methyl-5-[(2,2,2-trifluorethyl)sulfinyl]phenyl}-3-(trifluoromethyl)-1H-1,2,4-triazol-5-amine]
[4]; 3.2 ppm
  Efficacy in % after 6d: 0%

## Cc1c(F)c(F)c(COC(=O)[C@@H]2[C@H](/C=C(\Cl)C(F)(F)F)C2(C)C)c(F)c1F (racemic) [Tefluthrin]
[2]; 40 ppm
  Efficacy in % after 2d: 0%

## N#C/N=C1\SCCN1Cc1ccc(Cl)nc1 [Thiacloprid]
[5]
  Efficacy in % after 2d: 40%
  Efficacy in % after 3d: 20%
  Efficacy in % after 7d: 10%
